Residue numbers refer to the chain shown, from its start. Read-outs that look alike come from different tables or passages of the source.
What was measured:
[1] = pH 7.72, l = 0.5, KNO3; cited from earlier work
[2] = Concentration-dependent reaction rate of aquacobalamin with thiol ligand forming thiolatocobalamin (time-resolved UV-visible spectroscopy); type: physicochemical; details: pH 7.2, l = 1, sodium triflate
Protocol: The UV-visible spectra of newly synthesized cobalamin derivatives was determined in EPPS buffer (40 mM, pH 7.6, l=1.0 M with sodium triflate). The reaction of aquacobalamin with cysteamine and mercaptopropionylglycine was monitored by time-resolved spectral scanning of reactions containing a fixed amount of aquacobalamin (10-25 μM (micromolar)) and various concentrations of the ligand.
Mercaptopropionylglycine reacted readily with aquacobalamin to form a stable MPGCbl complex at pH 7.2.
A fixed concentration of aquacobalamin was reacted with varying concentrations of the ligand MPG. The reaction was monitored by time-resolved UV-visible spectroscopy for a total of 50 minutes (FIG. 5). The spectral changes were consistent with the conversion of aquacobalamin into MPGCbl (FIG. 5 a) via a mechanism that involves no detectable reaction intermediates. Initial and final spectra are analyzed to confirm the identity of the thiolatocobalamin product (FIG. 5 b). Time courses were generated at the absorption maxima of each species (350 nm, H2OCbl^+, and 372 nm, MPGCbl) (FIG. 5 c).

[3] = tested on: fibroblasts from healthy subjects; assay: MMA in conditioned medium of control fibroblasts; type: cell-based, human
Excerpt: (§1) Cultured cells from control (healthy neonatal subjects) or cblC fibroblasts were supplemented without exogenous Cbl (negative control), with commercial CNCbl (current therapy control) or with the newly synthesized cobalamins (test group). The ability of these compounds to support intracellular Cbl metabolism in the absence of CblC was examined by monitoring disease biomarker metabolites Hcy and MMA levels in the conditioned medium.
(§2) The cellular response to treatment with new derivatives CyaCbl and MPGCbl in comparison with current therapeutic form CNCbl was measured. The ability of the new cobalamin derivatives CyaCbl and MPGCbl to achieve metabolic control, i.e. reduction of for example MMA production by cblC fibroblasts in culture, was examined as described in previously published experimental protocols. FIG. 13 provides a comparison of the effect of CNCbl (0.001 mM) versus the same dose of CyaCbl or MPGCbl given to cultured fibroblasts from healthy subjects (HFF, NHDF, PCS, Wiesel, Control) or from cblC patients (WG1801, WG2176, WG3354, GM10011, GM02345B, GM02452C).
(§3) Additional examination of the effect of thiolatocobalamins CyaCbl and MPGCbl and sulfur-containing alkylcobalamin Me-S-MeCbl with respect to structural analogues that are NOT available for therapy was also carried out, for comparative purposes. The results of cellular response (healthy controls and cblC patient fibroblasts) to cobalamin treatment, as reflected by MMA levels is provided in Table 6.

cultured fibroblasts = assay: Cytotoxicity and cellular transport observed in cultured fibroblast experiments; type: cell-based, human; details: for Transport into the cells: canonical TC transporter and its cellular receptor CD320; for Cytotoxicity: under the experimental conditions of the fibroblast cultures
human wild type CblC = molecular target: T1, human wild type CblC (Homo sapiens, UniProt Q9Y4U1); assay: Binding to CblC and conversion to base-off configuration (UV-visible spectrophotometry); details: pH 7.6, EPPS buffer 0.04 M
T1 sequence (Q9Y4U1 1-282): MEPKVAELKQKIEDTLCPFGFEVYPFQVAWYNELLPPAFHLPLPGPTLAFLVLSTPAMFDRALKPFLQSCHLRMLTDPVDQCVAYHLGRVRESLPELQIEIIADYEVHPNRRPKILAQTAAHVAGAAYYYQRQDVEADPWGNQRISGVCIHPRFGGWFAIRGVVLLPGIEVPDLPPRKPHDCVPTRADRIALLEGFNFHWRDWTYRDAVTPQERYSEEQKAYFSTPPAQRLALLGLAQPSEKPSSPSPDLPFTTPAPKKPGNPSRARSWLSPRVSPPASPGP
Protocol: An important aspect for the bioactivity of the new compounds is their ability to bind to the processing enzyme CblC, and to undergo conversion to the base-off configuration, which enhances their reactivity. This is a critical step in all intracellular pathways of vitamin B12 metabolism that are involved in pathogenesis, and certainly, relevant to the cblC disease itself. […] Binding studies were conducted at pH 7.6 (EPPS buffer, 0.04 M) and analyzed by UV-visible spectrophotometry.

[4] = molecular target: T2, human recombinant CblC wild type (Homo sapiens, UniProt Q9Y4U1); type: biochemical; details: for Product of the reaction: cobalamin bound to human CblC, in the presence of GSH; for Half-life of beta-axial ligand removal, Wild type CblC: human, pH 7.6
T2 sequence (Q9Y4U1 1-282): T1 sequence (Q9Y4U1 1-282)
Protocol: (§4) The ability of the newly synthesized Cbl derivatives to serve as substrates for CblC was examined (FIG. 12). CblC activity was measured by UV-visible spectroscopy according to published procedures. Analysis of reaction products was performed by mass spectrometry. We measured dealkylation and de-thiolation of Co—C and Co—S bonded Cbl derivatives, respectively, by wild type and mutant CblC proteins to determine whether these reactions could be supported in patients harboring an abnormal isoform of CblC with low or no enzymatic activity.
The enzymatic activity of CblC in the presence of CyaCbl and MPGCbl as substrates was evaluated under the same experimental conditions utilized to examine dealkylation of MeCbl and AdoCbl. […] The reaction was complete in less than 10 seconds, which is the time it takes to record the first spectrum after mixing of CblC-bound to CyaCbl or MPGCbl with 5 mM GSH (FIG. 12).
(§5) First, the ability of novel cobalamins described herein was tested to act as substrate for wild type CblC and to restore the lost activity of pathogenic variants, such as mutant Arg161Gly, that leads to early-onset form of the cblC disease.

[5] = tested on: fibroblasts isolated from patients with cblC disease; assay: MMA in conditioned medium of cblC patient fibroblasts; type: cell-based, human; details: for Reduction of MMA to the levels of healthy fibroblasts, compared with CNCbl: 0.001 mM, same dose as CNCbl, FIG. 13
Excerpt: as §1, §2, §3

[6] = molecular target: T2, human recombinant CblC wild type; type: biochemical; details: dethiolation; 50 μM GSH
[7] = molecular target: T3, human recombinant CblC pathogenic mutant Arg161Gly (Homo sapiens, UniProt Q9Y4U1, R161G); type: biochemical; details: for Product under ambient conditions, Mutant Arg161Gly: dethiolation, 50 μM GSH; for Half-life of beta-axial ligand removal, Mutant Arg161Gly: human, pH 7.6
T3 sequence (Q9Y4U1 1-282 R161G): T1 sequence (Q9Y4U1 1-282) with R161G
Protocol: as §4, §5

[8] = UV-visible spectrum of purified cobalamin in water (base-off configuration without CblC); type: physicochemical; details: after acetone precipitation and vacuum filtration
[9] = Controls (group value), after 7 days
[10] = Controls, after 7 days wash-off period without supplemental cobalamin
[11] = HFF control fibroblasts, after 7 days
[12] = NHDF control fibroblasts, after 7 days
[13] = Wiezel control fibroblasts, after 7 days
[14] = GM02345B cblC fibroblasts, after 7 days
[15] = GM02452C cblC fibroblasts, after 7 days
[16] = GM10011 cblC fibroblasts, after 7 days
[17] = WG1801 cblC fibroblasts, after 7 days
[18] = WG2176 cblC fibroblasts, after 7 days
[19] = WG3354 cblC fibroblasts, after 7 days
[20] = cblC patients (group value), after 7 days
[21] = cblC patients, after 7 days wash-off period without supplemental cobalamin

Compound | K, concentration-dependent reaction rate (formation from aquacobalamin) [1] [M⁻¹ s⁻¹] | K, concentration-dependent reaction rate (formation from aquacobalamin) [2] [M⁻¹ s⁻¹] | MMA in conditioned medium [3, 9] [μmol/mg protein] | MMA in conditioned medium [3, 10] [μmol/mg protein] | MMA in conditioned medium [3, 11] [μmol/mg protein] | MMA in conditioned medium [3, 12] [μmol/mg protein] | MMA in conditioned medium [3, 13] [μmol/mg protein] | Transport into the cells (cultured fibroblasts) | Half-life of beta-axial ligand removal, Wild type CblC [4] [min] | MMA in conditioned medium [5, 14] [μmol/mg protein] | MMA in conditioned medium [5, 15] [μmol/mg protein] | MMA in conditioned medium [5, 16] [μmol/mg protein] | MMA in conditioned medium [5, 17] [μmol/mg protein] | MMA in conditioned medium [5, 18] [μmol/mg protein] | MMA in conditioned medium [5, 19] [μmol/mg protein] | MMA in conditioned medium [5, 20] [μmol/mg protein] | MMA in conditioned medium [5, 21] [μmol/mg protein] | Product under ambient conditions, Wild type CblC [6] | Product under ambient conditions, Mutant Arg161Gly [7] | Half-life of beta-axial ligand removal, Mutant Arg161Gly [7] [min] | further results
CC(C[S][Co+2])C(=O)N1CCCC1C(=O)O.CC1=C2N=C(C=C3N=C(C(C)=C4[N-]C(C(CC(N)=O)C4(C)CCC(=O)NCC(C)OP(=O)([O-])OC4C(CO)OC(n5cnc6cc(C)c(C)cc65)C4O)C4(C)N=C1C(CCC(N)=O)C4(C)CC(N)=O)C(CCC(N)=O)C3(C)C)C(CCC(N)=O)C2(C)CC(N)=O (centres unmarked) [CaptoprilCbl] | 24.7 |  |  |  |  |  |  |  |  |  |  |  |  |  |  |  |  |  |  |  | 
CC1=C2N=C(C=C3N=C(C(C)=C4[N-]C(C(CC(N)=O)C4(C)CCC(=O)NCC(C)OP(=O)([O-])OC4C(CO)OC(n5cnc6cc(C)c(C)cc65)C4O)C4(C)N=C1C(CCC(N)=O)C4(C)CC(N)=O)C(CCC(N)=O)C3(C)C)C(CCC(N)=O)C2(C)CC(N)=O.NCC[S][Co+2] (centres unmarked) [CyaCbl] |  | 28.66 | 0.141 | 0.154 | 0.095 | 0.184 | 0.144 | transported successfully into the cells | <0.5 | 0.217 | 0.369 | 0.208 | 0.194 | 0.189 | 0.114 | 0.215 | 0.190 | H2OCbl | H2OCbl | 2.1 | Cytotoxicity (cultured fibroblasts): not cytotoxic; Effect of binding to human wild type CblC on configuration (human wild type CblC): induces their base-off configuration; Product of the reaction [4]: H2OCbl^+; Reduction of MMA to the levels of healthy fibroblasts, compared with CNCbl [5]: far superior compared to CNCbl
C/C1=C2N=C(/C=C3N=C(/C(C)=C4\[N-]C(C(CC(N)=O)C4(C)CCC(=O)NCC(C)OP(=O)([O-])OC4C(CO)OC(n5cnc6cc(C)c(C)cc65)C4O)C4(C)N=C1C(CCC(N)=O)C4(C)CC(N)=O)C(CCC(N)=O)C\3(C)C)C(CCC(N)=O)C/2(C)CC(N)=O.NC(CCC(=O)NC(C[S-])C(=O)NCC(=O)O)C(=O)O.[Co+3] (centres unmarked) [GSCbl, glutathionylcobalamin, reference compound] | 18.09 | 20.74 | 0.106 | 0.134 | 0.105 | 0.078 | 0.135 |  | 2.5 | 0.223 | 0.167 | 0.052 | 0.198 | 0.316 | 0.269 | 0.204 | 0.275 | H2OCbl | H2OCbl | 9.8 | Fold less proficient support of the CblC reaction than MPGCbl and CyaCbl ([4]; wild type and pathogenic variant Arg161Gly): 4-5 fold
CC([S][Co+2])C(=O)NCC(=O)O.CC1=C2N=C(C=C3N=C(C(C)=C4[N-]C(C(CC(N)=O)C4(C)CCC(=O)NCC(C)OP(=O)([O-])OC4C(CO)OC(n5cnc6cc(C)c(C)cc65)C4O)C4(C)N=C1C(CCC(N)=O)C4(C)CC(N)=O)C(CCC(N)=O)C3(C)C)C(CCC(N)=O)C2(C)CC(N)=O (centres unmarked) [MPGCbl] |  | 39.71 | 0.120 | 0.121 | 0.116 | 0.096 | 0.148 | transported successfully into the cells | <0.5 | 0.182 | 0.190 | 0.087 | 0.212 | 0.216 | 0.183 | 0.178 | 0.185 | H2OCbl | H2OCbl | 1.5 | Configuration in the absence of the CblC protein [8]: at least a fraction of this Cbl derivative may exist in its base-off configuration; Cytotoxicity (cultured fibroblasts): not cytotoxic; Effect of binding to human wild type CblC on configuration (human wild type CblC): induces their base-off configuration; Product of the reaction [4]: H2OCbl^+; Reduction of MMA to the levels of healthy fibroblasts, compared with CNCbl [5]: far superior compared to CNCbl
